Data set [1] deals with Human breast carcinoma (MDA-MB 231) subcutaneous solid tumours. Nature of the data set: Human breast carcinoma MDA-MB 231 s.c. solid tumours in nude mice (Example 27). The following applies: 35 mg/kg. Type of data set: in vivo, balb/c nu/nu mice. As to the method: balb/c mice aged 5 to 6 weeks were purchased from Charles River Canada Inc. The animals were kept 5 per cage with an air filter cover under light (12 light/dark cycle, light on at 6 H00) and temperature (22° C.±1° C.)-controlled environment. All manipulations of animals were performed under a sterilized laminar hood. The animals had ad libitum access to Purina mouse chow (Pro Lab PMH 4018, Trademark of Agway, Syracuse, N.Y.) and water. These animal studies were conducted according to the “Guidelines for Care and Use of Experimental Animals”. Tumor Cell Culture: Human breast cancer cells MDA-MB 231 were cultured in the appropriated culture medium. The cells were harvested in their logarithmic growth phase for the preparation of tumor implantation. Tumor Implantation: Human tumor or myeloma cells (2.5 to 5.0×10^6 cells) were implanted subcutaneously in 0.200 mL of medium containing 30% Matrigel on the two flanks of balb/c nu/nu mice through a 1 to 2 cm long 20-gauge needle. Treatments: 2 to 3 weeks after tumor cell implantation, animals that developed s.c. solid tumors were selected and divided into several homogeneous groups (n=5 animals per group or dose) with respect to tumor size (0.5 to 0.8 cm in diameter). The treatments were performed next day. The animals were dosed with the following dosing solutions. Control: (0.9%, NaCl) Compositions:
non-formulated Bendamustine, (35 mg/kg)
Bendamustine (35 mg/kg) in 40% SBECD, 1% protamine sulfate (formulated BM)
Subcutaneous solid tumor measurements were performed on the day of first injection and at 3- to 4-day intervals thereafter. The two largest perpendicular diameters of each tumor were measured with calipers and tumor sizes were estimated using the formula: TV=L×W/2 where TV: tumor volume; L: length; W: width. The body weights of animals were also noted.

Data set [2] concerns Lewis Lung carcinoma 3LL cells. Nature of the data set: Murine experimental lung metastasis model (Example 26). It is filed as in vivo, C57Bl/6 mice. The conditions noted are these: 50 mg/kg. The protocol:
Female Charles Rivers C57Bl/6 mice, aged 5 to 6 weeks, were purchased from Charles River Canada Inc. The animals were kept 5 per cage with an air filter cover under light (12 light/dark cycle, light on at 6H00) and temperature (22°±1° C.)-controlled environment. All manipulations of animals were performed under a sterilized laminar hood. The animals had ad libitum access to Purina mouse chow (Pro Lab PMH 4018, Trademark of Agway, Syracuse, N.Y.) and water. These animal studies were conducted according to the “Guidelines for Care and Use of Experimental Animals”. Tumor Cell Culture:
Lewis Lung carcinoma 3LL cells were cultured in the appropriated culture medium. The cells were harvested in their logarithmic growth phase for the preparation of tumor implantation.
Lewis Lung carcinoma 3LL cells (2.0 to 5.0×10^5 cells in 200 ul PBS) were implanted intravenously by tail vein to establish experimental lung metastasis tumor models.
The treatments were performed on day after tumor implantation. The animals were dosed with the following dosing solutions.
non-formulated bendamustine (BM), (50 mg/kg)
Bendamustine (50 mg/kg) in 20% SBECD, 1% LMWP
Metastasis formation was evaluated by counting the numbers of metastasis spots on the lung surface. Routine metastasis examination were done for all organs at the end of the study.

Data set [3] in a line: Pharmacokinetics of bendamustine dosed to rats, composition with SBECD and LMWP (Example 25). It is filed as in vivo, Female Sprague-Dawley rats. The following applies: i.v. 10 mg/kg. The protocol: Control: 5 mg/mL bendamustine hydrochloride, 10.2 mg/mL of mannitol in 0.9% NaCl; dose of 10 mg/kg
5 mg/mL bendamustine hydrochloride, 20% w/w sodium sulfobutyl ether β-cyclodextrin, 10.2 mg/g mannitol in water; dose of 10 mg/kg.
5 mg/mL bendamustine hydrochloride, 20% w/w sodium sulfobutyl ether β-cyclodextrin, 1% LMWP, 10.2 mg/g mannitol in water; dose of 10 mg/kg.
Female Sprague-Dawley rats (250-350 g). The animals were kept three per cage with an air filter cover under light (12 h light/dark cycle, light on at 06 h00) and controlled temperature 22° C.+/−1° C. All manipulations with the animals were performed under a sterilized laminar hood. The animals had ad libitum access to Purina mouse chow and water. The animals were fasted overnight and anesthetized, before dosing. Dosing and Sampling: The bendamustine compositions and control were administered intravenously to rats via a tail vein. Blood samples were collected 5, 15, 30, 45 min, 1, 1.5, 2, 3 and 4 hrs post-injection. The rats were anesthetized by general inhalation of isoflurane. The blood samples were collected from the jugular vein with a heparinized tube and kept on ice. The sample was immediately centrifuged, and the plasma separated. The plasma samples were immediately extracted. Sample Extraction and Analysis: The plasma samples 0.100 mL were transferred to plastic tubes. The samples were extracted with 0.400 mL of 100 mM HCl in acetonitrile while being shaken vigorously for 30 seconds. The samples were centrifuged at 10000 RPM for 5 minutes. The supernatant was separated. The samples were frozen in dry ice and kept at −80° C. until HPLC analysis. The aliquots of 20 microliters were injected into HPLC for analysis. The HPLC Conditions: C18 reversed phase column 50×4.6 mm, Symmetry/Shield 3.5 micrometer Column temperature 30° C. Flow rate 1.5 mL/min Injection volume 20 microliters Fluorescence detection at wavelengths: excitation 327 nm, emission 420 nm Mobile phase: Buffer A: 5% acetonitrile 0.1% TFA Buffer B: 90% acetonitrile 0.1% TFA Run time: 10 min The pharmacokinetic profiles of Bendamustine for tested composition versus the control is shown in Table 9 below.

The results in this text go back to patent US8703964B2, “Bendamustine cyclopolysaccharide compositions” (Supratek Pharma Inc., priority 2009, dated 2014).

Regarding `Cn1c(CCCC(=O)O)nc2cc(N(CCCl)CCCl)ccc21` [BM, 4-[5-[bis(2-chloroethyl)amino]-1-methylbenzimidazol-2-yl]butanoic acid], the “Tumor weight after treatment, Average (SEM)” value in data set [1] (day 0) was 0.237 (0.008) g; in data set [1] (day 2), 0.250 (0.028) g; in data set [1] (day 4), 0.294 (0.027) g; in data set [1] (day 7) it was 0.313 (0.030) g; in data set [1] (day 9) it was 0.349 (0.038) g; in data set [1] (day 11) it was 0.417 (0.046) g. Moreover, in data set [1] (day 14), the “Tumor weight after treatment, Average (SEM)” value is 0.537 (0.055) g. Moreover, the “Inhibition % vs control (on day 14)” value in data set [1] (day 14) is on record as 70.2%. For the same molecule, the “Tumor volume on day 14” value in data set [1] (day 14) stood at 0.54 ± 0.06 g. Also, the “Body weight on day 14” value in data set [1] (nude mice with MDA-MB 231 tumours) was determined as 18.1 ± 0.39 g. This molecule also came in with a Lung metastasis number in data set [2] (3LL i.v. implanted, C57Bl/6 mice) of 56.1 ± 9.5. Further, in data set [2] (3LL lung metastasis, mice), the “Inhibition on metastasis formation vs control” value worked out at 14.4%. For the same molecule, the “Inhibition on metastasis formation vs not formulated BM” value in data set [2] (3LL lung metastasis, mice) was determined as 0%. The concentration at 1 h in data set [3] (female, Sprague-Dawley, rat, plasma, iv, 1 h post injection, read-out: Concentration of bendamustine in rat plasma, Mean (SEM)) was found to be 47 ng/mL. Moreover, the concentration at 3 h in data set [3] (female, Sprague-Dawley, rat, plasma, iv, 3 h post injection, read-out: Concentration of bendamustine in rat plasma, Mean (SEM)) came to 0 ng/mL. For the same molecule, the “Concentration of bendamustine in rat plasma, Mean (SEM)” value was 6045 (388) ng/mL in data set [3] (0.08 h post injection); 2428 (250) ng/mL in data set [3] (0.25 h post injection); 520 (105) ng/mL in data set [3] (0.5 h post injection); 145 (35) ng/mL in data set [3] (0.75 h post injection); 8 (1) ng/mL in data set [3] (1.5 h post injection); 2 (1) ng/mL in data set [3] (2 h post injection).
